# Measured values published in ChEMBL document CHEMBL1828590 (J Med Chem, 2011).
# Tests used:
# Histone deacetylase 8 = target: T1, Histone deacetylase 8 (Homo sapiens, UniProt Q9BY41)
# T1 sequence (Q9BY41 whole entry): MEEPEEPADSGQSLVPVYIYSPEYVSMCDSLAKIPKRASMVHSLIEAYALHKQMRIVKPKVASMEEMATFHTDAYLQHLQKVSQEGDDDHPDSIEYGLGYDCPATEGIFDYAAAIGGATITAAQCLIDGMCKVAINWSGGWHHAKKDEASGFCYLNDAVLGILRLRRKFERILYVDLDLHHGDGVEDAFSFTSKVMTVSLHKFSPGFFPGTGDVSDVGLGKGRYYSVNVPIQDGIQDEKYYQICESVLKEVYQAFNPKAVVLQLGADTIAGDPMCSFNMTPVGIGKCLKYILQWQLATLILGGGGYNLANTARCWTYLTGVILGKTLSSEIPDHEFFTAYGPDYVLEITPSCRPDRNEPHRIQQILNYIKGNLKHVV
# Description: Competitive inhibition of HDAC8 using KI-104 as substrate by fluorescence assay
# [1] = Oral bioavailability in Wistar rat at 10 mg/kg; assay type: ADME, organism-based; conditions: in vivo
# Histone deacetylase 4 = Histone deacetylase 4 (Homo sapiens, UniProt P56524)
# Description: Competitive inhibition of HDAC4 using KI-104 as substrate by fluorescence assay
# Histone deacetylase 5 = Histone deacetylase 5 (Homo sapiens, UniProt Q9UQL6)
# Description: Competitive inhibition of HDAC5 using KI-104 as substrate by fluorescence assay
# COLO 205 = assay: Antiproliferative activity against human COLO205 cells after 96 hrs by celltiter 96 assay; assay type: functional, cell-based; conditions: COLO 205, 96 h
# Histone deacetylase 3 = Histone deacetylase 3 (Homo sapiens, UniProt O15379)
# Description: Competitive inhibition of HDAC3 using KI-104 as substrate by fluorescence assay
# [2] = target: T2, Protein deacetylase HDAC6 (Homo sapiens, UniProt Q9UBN7)
# T2 sequence (Q9UBN7 whole entry): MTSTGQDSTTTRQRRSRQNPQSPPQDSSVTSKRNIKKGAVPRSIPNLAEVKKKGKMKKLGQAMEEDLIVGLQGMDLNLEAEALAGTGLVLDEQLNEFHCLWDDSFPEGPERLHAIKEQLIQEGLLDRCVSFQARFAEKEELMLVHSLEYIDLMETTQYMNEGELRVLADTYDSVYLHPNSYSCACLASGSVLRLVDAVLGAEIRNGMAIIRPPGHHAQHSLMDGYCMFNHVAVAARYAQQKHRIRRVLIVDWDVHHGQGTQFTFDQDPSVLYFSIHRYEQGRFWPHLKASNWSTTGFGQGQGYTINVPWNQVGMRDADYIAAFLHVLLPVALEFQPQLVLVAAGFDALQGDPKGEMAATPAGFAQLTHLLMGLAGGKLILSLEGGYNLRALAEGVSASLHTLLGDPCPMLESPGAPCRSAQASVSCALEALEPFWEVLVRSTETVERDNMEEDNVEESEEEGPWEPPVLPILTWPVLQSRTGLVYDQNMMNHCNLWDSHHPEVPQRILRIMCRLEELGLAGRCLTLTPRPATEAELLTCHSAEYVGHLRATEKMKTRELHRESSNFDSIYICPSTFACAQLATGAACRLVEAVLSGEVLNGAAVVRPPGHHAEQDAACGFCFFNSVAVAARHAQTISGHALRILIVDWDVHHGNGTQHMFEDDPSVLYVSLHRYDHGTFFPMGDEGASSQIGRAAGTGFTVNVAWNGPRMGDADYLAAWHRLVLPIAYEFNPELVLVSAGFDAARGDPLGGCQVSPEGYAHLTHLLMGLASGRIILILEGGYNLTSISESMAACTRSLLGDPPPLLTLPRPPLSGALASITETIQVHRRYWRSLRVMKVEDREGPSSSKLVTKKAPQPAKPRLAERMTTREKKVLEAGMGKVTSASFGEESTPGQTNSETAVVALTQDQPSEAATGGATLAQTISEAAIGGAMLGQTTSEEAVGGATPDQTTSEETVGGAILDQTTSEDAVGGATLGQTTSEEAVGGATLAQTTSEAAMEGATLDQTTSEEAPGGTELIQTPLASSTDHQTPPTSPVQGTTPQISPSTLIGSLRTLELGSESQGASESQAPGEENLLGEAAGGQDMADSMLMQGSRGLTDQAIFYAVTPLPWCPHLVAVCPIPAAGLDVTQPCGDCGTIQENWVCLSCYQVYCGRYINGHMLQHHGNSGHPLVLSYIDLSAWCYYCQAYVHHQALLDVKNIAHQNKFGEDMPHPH
# Description: Competitive inhibition of HDAC6 using KI-104 as substrate by fluorescence assay
# HCT-116 [3] = assay: Antiproliferative activity against human HCT116 cells after 96 hrs by celltiter 96 assay; assay type: functional, cell-based; conditions: HCT-116, 96 h
# Histone deacetylase 9 = Histone deacetylase 9 (Homo sapiens, UniProt Q9UKV0)
# Description: Competitive inhibition of HDAC9 using KI-104 as substrate by fluorescence assay
# [4] = target: T3, Polyamine deacetylase HDAC10 (Homo sapiens, UniProt Q969S8)
# T3 sequence (Q969S8 whole entry): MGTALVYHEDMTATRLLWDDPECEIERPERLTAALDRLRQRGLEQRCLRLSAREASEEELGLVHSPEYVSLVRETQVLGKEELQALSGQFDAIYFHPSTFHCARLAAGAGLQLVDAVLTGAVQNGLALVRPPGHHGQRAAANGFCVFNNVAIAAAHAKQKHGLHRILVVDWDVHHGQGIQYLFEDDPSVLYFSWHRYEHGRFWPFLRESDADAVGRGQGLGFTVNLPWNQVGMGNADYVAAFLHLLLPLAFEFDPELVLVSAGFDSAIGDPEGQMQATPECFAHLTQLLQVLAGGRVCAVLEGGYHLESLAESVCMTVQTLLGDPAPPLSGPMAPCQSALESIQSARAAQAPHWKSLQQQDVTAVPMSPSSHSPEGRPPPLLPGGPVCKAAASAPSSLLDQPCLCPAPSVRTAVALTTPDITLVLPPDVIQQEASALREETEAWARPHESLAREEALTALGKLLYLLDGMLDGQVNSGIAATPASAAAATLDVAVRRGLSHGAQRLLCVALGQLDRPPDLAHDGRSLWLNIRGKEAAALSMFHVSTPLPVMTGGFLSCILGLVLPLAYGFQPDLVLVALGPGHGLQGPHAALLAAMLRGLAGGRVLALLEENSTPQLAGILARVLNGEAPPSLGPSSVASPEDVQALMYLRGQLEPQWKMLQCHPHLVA
# Description: Competitive inhibition of HDAC10 using KI-104 as substrate by fluorescence assay
# Histone deacetylase 1 [5] = target: T4, Histone deacetylase 1 (Homo sapiens, UniProt Q13547)
# Description: Inhibition of full length recombinant HDAC1 using Fluor de Lys as substrate by fluorescence assay
# Histone deacetylase 11 = target: T5, Histone deacetylase 11 (Homo sapiens, UniProt Q96DB2)
# T5 sequence (Q96DB2 whole entry): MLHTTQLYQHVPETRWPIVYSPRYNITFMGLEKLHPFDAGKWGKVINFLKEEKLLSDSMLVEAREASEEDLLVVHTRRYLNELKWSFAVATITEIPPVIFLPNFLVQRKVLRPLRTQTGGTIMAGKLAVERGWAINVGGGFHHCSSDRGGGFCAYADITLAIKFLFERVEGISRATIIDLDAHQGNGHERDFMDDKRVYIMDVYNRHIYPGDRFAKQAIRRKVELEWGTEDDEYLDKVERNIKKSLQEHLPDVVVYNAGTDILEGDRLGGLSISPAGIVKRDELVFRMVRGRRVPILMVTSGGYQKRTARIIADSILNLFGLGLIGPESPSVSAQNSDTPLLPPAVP
# Description: Competitive inhibition of HDAC11 using KI-104 as substrate by fluorescence assay
# PC-3 = assay: Antiproliferative activity against human PC3 cells after 96 hrs by celltiter 96 assay; assay type: functional, cell-based; conditions: PC-3, 96 h
# Histone deacetylase 1 [6] = target: T4, Histone deacetylase 1; remark: listed apart in the source
# Description: Competitive inhibition of HDAC1 using KI-104 as substrate by fluorescence assay
# Histone deacetylase 2 = Histone deacetylase 2 (Homo sapiens, UniProt Q92769)
# Description: Competitive inhibition of HDAC2 using KI-104 as substrate by fluorescence assay
# [7] = Toxicity in po dosed athymic nu/nu Harlan mouse with xenografted human HCT116 cells assessed as maximum tolerated administered qd for 21 days; assay type: organism-based, HCT-116; conditions: in vivo
# A2780 = assay: Antiproliferative activity against human A2780 cells after 96 hrs by celltiter 96 assay; assay type: functional, cell-based; conditions: A2780, 96 h
# [8] = (§1) Half life in mouse liver microsomes; assay type: ADME, Microsome; conditions: liver microsomes
# [9] = Half life in dog liver microsomes; assay type: ADME, Canis lupus familiaris, Microsome
# [10] = Half life in human liver microsomes; assay type: ADME, Microsome
# [11] = Kinetic solubility of the compound at pH 7 with […] DMSO; assay type: physicochemical; conditions: buffer, read-out: Kinetic_solubility
# [12] = 1-Octanol-sodium phosphate buffer distribution coefficient, log D of the compound at pH 7.4; assay type: physicochemical
# [13] = Apparent permeability from apical to basolateral side of human Caco2 cells; assay type: ADME, cell-based; conditions: Caco-2
# [14] = Half life in rat liver microsomes; assay type: ADME, Microsome
# [15] = Apparent permeability from basolateral to apical side of human Caco2 cells; assay type: ADME, cell-based; conditions: Caco-2
# Mus musculus [16] = assay: Toxicity in athymic nu/nu Harlan mouse xenografted with human HCT116 cells assessed as mouse survival at 200 mg/kg, po QD for 21 days measured on day 22; assay type: organism-based, HCT-116; parameters: dose 200 mg/kg, route oral; conditions: in vivo, 504 h
# Mus musculus [17] = assay: Toxicity in athymic nu/nu Harlan mouse xenografted with human HCT116 cells assessed as mouse survival at 50 mg/kg, po QD for 21 days measured on day 22; assay type: organism-based, HCT-116; parameters: dose 50 mg/kg, route oral; conditions: in vivo, 504 h
# HCT-116 [18] = assay: Antitumor activity against human HCT116 cells xenografted in athymic nu/nu Harlan mouse assessed as tumor growth inhibition at 50 mg/kg, po qd for 21 days measured on day 22; assay type: functional; conditions: read-out: TGI
# Mus musculus [19] = assay: Toxicity in athymic nu/nu Harlan mouse xenografted with human HCT116 cells assessed as mouse survival at 100 mg/kg, po QD for 21 days measured on day 22; assay type: organism-based, HCT-116; parameters: dose 100 mg/kg, route oral; conditions: in vivo, 504 h
# HCT-116 [20] = assay: Antitumor activity against human HCT116 cells xenografted in athymic nu/nu Harlan mouse assessed as tumor growth inhibition at 200 mg/kg, po qd for 21 days measured on day 22; assay type: functional; conditions: read-out: TGI
# HCT-116 [21] = assay: Antitumor activity against human HCT116 cells xenografted in athymic nu/nu Harlan mouse assessed as tumor growth inhibition at 100 mg/kg, po qd for 21 days measured on day 22; assay type: functional; conditions: read-out: TGI
# Liver = assay: as §1; assay type: ADME, Microsome; conditions: microsomes
# Histone deacetylase 7 = Histone deacetylase 7 (Homo sapiens, UniProt Q8WUI4)
# Description: Competitive inhibition of HDAC7 using KI-104 as substrate by fluorescence assay
# Histone deacetylase 9, sequence (Q9UKV0 whole entry): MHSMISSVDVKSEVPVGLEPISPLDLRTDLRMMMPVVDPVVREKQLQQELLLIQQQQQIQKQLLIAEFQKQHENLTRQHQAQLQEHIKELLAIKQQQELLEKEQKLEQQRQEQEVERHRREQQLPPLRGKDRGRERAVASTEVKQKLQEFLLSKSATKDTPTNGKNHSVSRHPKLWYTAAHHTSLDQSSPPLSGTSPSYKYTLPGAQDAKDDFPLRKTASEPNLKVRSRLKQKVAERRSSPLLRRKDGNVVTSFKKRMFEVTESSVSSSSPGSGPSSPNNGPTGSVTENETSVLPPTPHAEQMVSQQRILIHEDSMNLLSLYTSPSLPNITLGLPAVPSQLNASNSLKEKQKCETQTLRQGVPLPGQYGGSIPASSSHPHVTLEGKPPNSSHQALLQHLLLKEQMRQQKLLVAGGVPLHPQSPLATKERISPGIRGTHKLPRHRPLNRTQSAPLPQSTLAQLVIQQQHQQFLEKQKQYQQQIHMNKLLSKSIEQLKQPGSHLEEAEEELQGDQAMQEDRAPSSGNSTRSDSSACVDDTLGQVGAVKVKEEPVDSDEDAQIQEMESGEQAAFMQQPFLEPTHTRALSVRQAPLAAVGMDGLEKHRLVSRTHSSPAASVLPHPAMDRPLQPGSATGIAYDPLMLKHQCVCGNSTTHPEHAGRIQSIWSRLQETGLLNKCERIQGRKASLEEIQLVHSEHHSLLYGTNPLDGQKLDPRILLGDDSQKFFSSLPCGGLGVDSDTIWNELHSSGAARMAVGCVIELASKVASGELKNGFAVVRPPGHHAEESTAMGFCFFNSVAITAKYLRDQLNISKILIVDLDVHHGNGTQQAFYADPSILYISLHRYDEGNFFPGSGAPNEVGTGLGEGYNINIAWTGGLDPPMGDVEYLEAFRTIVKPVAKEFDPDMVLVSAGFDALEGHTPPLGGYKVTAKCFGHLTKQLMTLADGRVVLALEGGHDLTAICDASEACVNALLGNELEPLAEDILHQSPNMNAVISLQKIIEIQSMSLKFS
# Histone deacetylase 4, sequence (P56524 whole entry): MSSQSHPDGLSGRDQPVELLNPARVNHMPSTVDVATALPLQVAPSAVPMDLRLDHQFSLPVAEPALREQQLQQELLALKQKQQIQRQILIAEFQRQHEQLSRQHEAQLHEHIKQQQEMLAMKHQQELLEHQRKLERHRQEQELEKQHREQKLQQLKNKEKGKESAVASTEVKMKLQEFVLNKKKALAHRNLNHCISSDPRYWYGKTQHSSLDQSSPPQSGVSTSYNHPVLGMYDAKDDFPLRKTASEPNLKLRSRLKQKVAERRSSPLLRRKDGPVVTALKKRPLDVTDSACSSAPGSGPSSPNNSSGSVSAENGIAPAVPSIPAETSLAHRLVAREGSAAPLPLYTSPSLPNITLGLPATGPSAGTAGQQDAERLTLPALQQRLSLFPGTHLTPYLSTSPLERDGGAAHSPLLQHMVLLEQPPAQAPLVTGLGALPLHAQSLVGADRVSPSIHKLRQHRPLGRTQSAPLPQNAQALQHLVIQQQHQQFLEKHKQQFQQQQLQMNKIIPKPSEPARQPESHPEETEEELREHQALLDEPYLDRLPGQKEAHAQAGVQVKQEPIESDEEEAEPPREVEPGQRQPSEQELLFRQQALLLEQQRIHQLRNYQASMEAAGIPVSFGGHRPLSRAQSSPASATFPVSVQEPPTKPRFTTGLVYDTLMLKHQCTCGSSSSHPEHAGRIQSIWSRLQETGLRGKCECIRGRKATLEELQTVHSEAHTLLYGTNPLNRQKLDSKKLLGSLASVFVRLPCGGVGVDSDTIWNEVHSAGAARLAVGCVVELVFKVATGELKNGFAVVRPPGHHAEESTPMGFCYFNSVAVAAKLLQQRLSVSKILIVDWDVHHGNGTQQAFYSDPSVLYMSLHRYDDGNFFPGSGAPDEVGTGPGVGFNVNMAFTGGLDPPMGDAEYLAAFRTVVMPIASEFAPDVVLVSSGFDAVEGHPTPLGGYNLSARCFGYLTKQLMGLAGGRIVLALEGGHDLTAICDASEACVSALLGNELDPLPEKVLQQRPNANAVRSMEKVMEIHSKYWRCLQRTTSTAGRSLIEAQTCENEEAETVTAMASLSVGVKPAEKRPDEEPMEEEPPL
# T4 sequence (Q13547 whole entry): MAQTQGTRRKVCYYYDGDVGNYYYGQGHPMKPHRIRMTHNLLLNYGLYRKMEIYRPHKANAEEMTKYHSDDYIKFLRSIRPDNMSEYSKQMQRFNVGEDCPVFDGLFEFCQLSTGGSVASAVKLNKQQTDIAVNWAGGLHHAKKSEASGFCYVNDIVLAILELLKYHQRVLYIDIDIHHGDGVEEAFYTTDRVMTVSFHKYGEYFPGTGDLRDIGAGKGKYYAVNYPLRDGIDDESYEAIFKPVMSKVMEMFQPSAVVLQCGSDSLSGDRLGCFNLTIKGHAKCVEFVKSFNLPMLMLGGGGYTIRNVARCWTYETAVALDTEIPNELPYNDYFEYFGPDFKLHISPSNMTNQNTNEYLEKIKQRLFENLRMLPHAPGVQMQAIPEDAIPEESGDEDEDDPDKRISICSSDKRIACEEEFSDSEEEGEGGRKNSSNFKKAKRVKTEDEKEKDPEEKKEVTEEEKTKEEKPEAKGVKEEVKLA
# Histone deacetylase 2, sequence (Q92769 whole entry): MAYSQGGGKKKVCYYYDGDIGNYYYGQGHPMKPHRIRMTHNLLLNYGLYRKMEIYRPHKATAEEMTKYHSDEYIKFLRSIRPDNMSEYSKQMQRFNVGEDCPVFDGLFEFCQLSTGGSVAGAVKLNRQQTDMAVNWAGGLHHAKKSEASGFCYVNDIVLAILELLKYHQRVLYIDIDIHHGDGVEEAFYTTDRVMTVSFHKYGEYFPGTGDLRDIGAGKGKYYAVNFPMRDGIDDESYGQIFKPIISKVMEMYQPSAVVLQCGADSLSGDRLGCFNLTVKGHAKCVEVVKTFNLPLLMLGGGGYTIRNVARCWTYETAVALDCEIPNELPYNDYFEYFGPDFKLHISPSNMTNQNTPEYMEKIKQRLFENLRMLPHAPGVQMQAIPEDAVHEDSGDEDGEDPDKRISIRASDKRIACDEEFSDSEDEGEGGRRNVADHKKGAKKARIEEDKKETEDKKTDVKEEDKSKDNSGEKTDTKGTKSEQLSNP
# Histone deacetylase 3, sequence (O15379 whole entry): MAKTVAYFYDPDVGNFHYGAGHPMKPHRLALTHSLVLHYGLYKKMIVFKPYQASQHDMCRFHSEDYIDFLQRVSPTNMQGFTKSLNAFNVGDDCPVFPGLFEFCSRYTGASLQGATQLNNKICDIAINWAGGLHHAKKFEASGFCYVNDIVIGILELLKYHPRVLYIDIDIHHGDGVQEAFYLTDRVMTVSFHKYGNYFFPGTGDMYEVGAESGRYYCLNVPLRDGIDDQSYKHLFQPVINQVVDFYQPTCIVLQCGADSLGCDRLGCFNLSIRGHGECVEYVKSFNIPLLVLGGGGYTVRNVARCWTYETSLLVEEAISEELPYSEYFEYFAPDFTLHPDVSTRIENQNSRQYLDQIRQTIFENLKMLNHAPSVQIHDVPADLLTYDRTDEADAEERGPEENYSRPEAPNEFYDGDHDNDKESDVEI
# Histone deacetylase 5, sequence (Q9UQL6 whole entry): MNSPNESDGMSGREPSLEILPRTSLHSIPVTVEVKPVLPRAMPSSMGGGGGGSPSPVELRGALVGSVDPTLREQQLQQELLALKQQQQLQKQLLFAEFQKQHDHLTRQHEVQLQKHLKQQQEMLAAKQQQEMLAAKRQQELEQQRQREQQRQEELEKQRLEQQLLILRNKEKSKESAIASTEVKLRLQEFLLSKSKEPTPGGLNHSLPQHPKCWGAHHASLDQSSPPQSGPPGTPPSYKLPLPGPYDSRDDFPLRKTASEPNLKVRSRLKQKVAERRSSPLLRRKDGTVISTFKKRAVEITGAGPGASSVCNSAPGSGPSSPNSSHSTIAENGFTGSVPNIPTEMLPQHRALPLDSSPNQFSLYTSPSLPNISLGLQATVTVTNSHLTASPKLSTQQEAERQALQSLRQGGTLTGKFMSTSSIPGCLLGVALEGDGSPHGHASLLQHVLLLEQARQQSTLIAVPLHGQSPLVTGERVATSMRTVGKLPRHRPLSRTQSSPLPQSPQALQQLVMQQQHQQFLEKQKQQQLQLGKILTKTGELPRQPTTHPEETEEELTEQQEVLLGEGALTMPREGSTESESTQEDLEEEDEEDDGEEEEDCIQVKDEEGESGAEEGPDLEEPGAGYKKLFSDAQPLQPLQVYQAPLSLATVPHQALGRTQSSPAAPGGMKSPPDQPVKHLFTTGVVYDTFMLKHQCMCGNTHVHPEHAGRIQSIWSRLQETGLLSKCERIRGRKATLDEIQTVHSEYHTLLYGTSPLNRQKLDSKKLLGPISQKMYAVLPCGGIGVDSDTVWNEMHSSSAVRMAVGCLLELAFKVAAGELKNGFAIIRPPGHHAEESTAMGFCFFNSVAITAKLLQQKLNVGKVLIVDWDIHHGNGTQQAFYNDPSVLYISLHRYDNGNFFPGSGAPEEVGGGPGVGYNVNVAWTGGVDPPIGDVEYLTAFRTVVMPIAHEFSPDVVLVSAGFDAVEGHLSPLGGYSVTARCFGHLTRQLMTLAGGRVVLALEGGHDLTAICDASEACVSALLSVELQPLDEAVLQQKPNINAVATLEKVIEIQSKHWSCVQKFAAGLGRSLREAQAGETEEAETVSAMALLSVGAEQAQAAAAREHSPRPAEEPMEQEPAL
SMILES,Ki (Histone deacetylase 8),Ki (Histone deacetylase 4),Ki (Histone deacetylase 5),IC50 (COLO 205),Ki (Histone deacetylase 3),Ki [2],IC50 (HCT-116 [3]),Ki (Histone deacetylase 9),Ki [4],IC50 (Histone deacetylase 1 [5]),Ki (Histone deacetylase 11),Ki (Histone deacetylase 1 [6]),Ki (Histone deacetylase 2),half-life [8],half-life [9],half-life [10],solubility kinetic [11],Papp A→B [13],IC50 (PC-3),IC50 (A2780),also measured
CCCCc1nc2cc(/C=C/C(=O)NO)ccc2n1CCNC(C)C,78 nM,11 nM,11 nM,470 nM,27 nM,225 nM,340 nM,30 nM,34 nM,42 nM,18 nM,26 nM,33 nM,,,,,,230 nM,380 nM,bioavailability [1]: 9%; MTD at 504 h [7]: 200 mg/kg
CCCCCCc1nc2cc(/C=C/C(=O)NO)ccc2n1CCNCC.Cl.Cl,,,,,,,,,,,,,,1.6 min,48 min,51 min,> 200 µM,0.97 ×10⁻⁶ cm/s,,,Activity (Mus musculus [16]): Non-toxic; Activity (Mus musculus [17]): Non-toxic; inhibition in vivo at 50 mg/kg (HCT-116 [18]): -9%; half-life [14]: 1.1 min; Papp B→A [15]: 10.5 ×10⁻⁶ cm/s; Activity (Mus musculus [19]): Non-toxic; inhibition in vivo at 200 mg/kg (HCT-116 [20]): 41%; inhibition in vivo at 100 mg/kg (HCT-116 [21]): -7%
CN(C)CC(C)(C)Cn1c(CCc2ccccc2)nc2cc(/C=C/C(=O)NO)ccc21,,10 nM,16 nM,110 nM,11 nM,23 nM,,21 nM,23 nM,42 nM,16 nM,15 nM,39 nM,,,60 min,,,,,t1/2 (Liver): 17 min
CCCCCc1nc2cc(/C=C/C(=O)NO)ccc2n1CCNC(C)C,94 nM,3.6 nM,5.6 nM,280 nM,10 nM,227 nM,260 nM,4.4 nM,19 nM,30 nM,4.2 nM,10 nM,14 nM,,,,,,120 nM,230 nM,
CCCCCCc1nc2cc(/C=C/C(=O)NO)ccc2n1CCNC(C)C,57 nM,6.6 nM,6.6 nM,170 nM,15 nM,348 nM,210 nM,16 nM,29 nM,36 nM,14 nM,20 nM,18 nM,,,,,,170 nM,200 nM,Ki (Histone deacetylase 7): 41 nM
CCCCCCc1nc2cc(/C=C/C(=O)NO)ccc2n1CCNCC,54 nM,6.2 nM,6.8 nM,190 nM,13 nM,282 nM,230 nM,14 nM,28 nM,20 nM,13 nM,11 nM,18 nM,,,,,,210 nM,240 nM,bioavailability [1]: 1.4%; MTD at 504 h [7]: 200 mg/kg

# Second part, led by results:
Ki (Histone deacetylase 8),Ki (Histone deacetylase 4),Ki (Histone deacetylase 5),IC50 (COLO 205),Ki (Histone deacetylase 3),Ki [2],IC50 (HCT-116 [3]),Ki (Histone deacetylase 9),Ki [4],IC50 (Histone deacetylase 1 [5]),Ki (Histone deacetylase 11),Ki (Histone deacetylase 1 [6]),Ki (Histone deacetylase 2),half-life [8],half-life [9],half-life [10],solubility kinetic [11],Papp A→B [13],SMILES,IC50 (PC-3),IC50 (A2780),also measured
,,,,,,,,,,,,,5 min,18 min,60 min,> 200 µM,3.01 ×10⁻⁶ cm/s,Cl.O=C(/C=C/c1ccc2c(c1)nc(CCc1ccccc1)n2CCN1CCCC1)NO,,,"logD ([12]; 1-octanol/sodium phosphate buffer, read-out: logD): 2.1; half-life [14]: 4.3 min; Papp B→A [15]: 27.7 ×10⁻⁶ cm/s"
95 nM,8.5 nM,,130 nM,12 nM,20 nM,190 nM,,,,,,,5 min,18 min,≥ 30 min,> 200 µM,3.01 ×10⁻⁶ cm/s,O=C(/C=C/c1ccc2c(c1)nc(CCc1ccccc1)n2CCN1CCCC1)NO,,,logD ([12]; octanol/water): 2.1; half-life [14]: 4.3 min; Papp B→A [15]: 27.7 ×10⁻⁶ cm/s
,8.7 nM,18 nM,87 nM,11 nM,27 nM,,24 nM,23 nM,23 nM,14 nM,12 nM,39 nM,,,90 min,,,O=C(/C=C/c1ccc2c(c1)nc(CCc1ccccc1)n2CCN1CCCCC1)NO,,,t1/2 (Liver): 35 min
